Data set [1] can be described thus: Maximal absorption wavelength of infrared-absorbing coloring agent in good solvent. The class given is physicochemical. The following applies: coloring agent solution in dimethyl sulfoxide; for λmax: largest absorbance in 650 to 1500 nm; for Number of maximal absorption wavelengths: wavelength range 650 to 1500 nm. The protocol: Each infrared-absorbing coloring agent was dissolved in a solvent (good solvent) descried in the following table to prepare a coloring agent solution having a concentration of infrared-absorbing coloring agent of […], and absorption spectrum of the coloring agent solution was measured. The number of maximal absorption wavelengths existing in a wavelength range of 650 to 1500 nm and the wavelength (max) indicating the value having the largest absorbance are shown in the following table.

A short description of data set [2]: Evaluation of dissolved amount of infrared-absorbing coloring agent. The class given is physicochemical. Conditions: 25° C., after stirring for 1 hour. The procedure:
The infrared-absorbing coloring agent shown in the tables below was added to a measurement solvent shown in the tables below, while the temperature was adjusted to 25° C. under atmospheric pressure. After stirring for 1 hour, the dissolved amount of each infrared-absorbing coloring agent in the measurement solvent at 25° C. was determined. The dissolved amount of the infrared-absorbing coloring agent was evaluated based on the following standard. A case of A was judged to be a good solvent, and a case of B was judged to be a poor solvent. The infrared-absorbing coloring agent exists as particles in the poor solvent. PGMEA described in the column of measurement solvent in the following tables is an abbreviation for propylene glycol monomethyl ether acetate. • A: dissolved amount of the infrared-absorbing coloring agent in 100 g of the measurement solvent at 25° C. was 0.1 g or more. • B: dissolved amount of the infrared-absorbing coloring agent in 100 g of the measurement solvent at 25° C. was less than 0.1 g.

With `Cc1ccccc1-c1c2/c(=C(\C#N)c3nc4ccc(Br)cc4o3)n(B(c3ccccc3)c3ccccc3)c(-c3ccc(OCCCS(=O)(=O)O)cc3)c2/c(=C(\C#N)c2nc3ccc(Br)cc3o2)n1B(c1ccccc1)c1ccccc1` [Example A-7], the λmax in data set [1] was determined as 747 nm. Further, in data set [1], the “Number of maximal absorption wavelengths” value was 2. Also, the Solubility entry is “B (dissolved amount of the infrared-absorbing coloring agent in 100 g of the measurement solvent at 25 °C was less than 0.1 g)” in data set [2] (Cyclopentanone), “A (dissolved amount of the infrared-absorbing coloring agent in 100 g of the measurement solvent at 25 °C was 0.1 g or more)” in data set [2] (Dimethyl sulfoxide), “B (dissolved amount of the infrared-absorbing coloring agent in 100 g of the measurement solvent at 25 °C was less than 0.1 g)” in data set [2] (PGMEA) and “B (dissolved amount of the infrared-absorbing coloring agent in 100 g of the measurement solvent at 25 °C was less than 0.1 g)” in data set [2] (Water).

With `Cc1ccccc1-c1c2/c(=C(\C#N)c3nc4ccccc4s3)n(B(c3ccccc3)c3ccccc3)c(-c3ccc(OCCCN(C)C)cc3)c2/c(=C(\C#N)c2nc3ccccc3s2)n1B(c1ccccc1)c1ccccc1` [Example A-3], in data set [1], the λmax is given as 780 nm. Moreover, the “Number of maximal absorption wavelengths” value in data set [1] is on record as 2. Besides, the Solubility result was “B (dissolved amount of the infrared-absorbing coloring agent in 100 g of the measurement solvent at 25 °C was less than 0.1 g)” in data set [2] (Cyclopentanone), “A (dissolved amount of the infrared-absorbing coloring agent in 100 g of the measurement solvent at 25 °C was 0.1 g or more)” in data set [2] (Dimethyl sulfoxide), “B (dissolved amount of the infrared-absorbing coloring agent in 100 g of the measurement solvent at 25 °C was less than 0.1 g)” in data set [2] (PGMEA) and “B (dissolved amount of the infrared-absorbing coloring agent in 100 g of the measurement solvent at 25 °C was less than 0.1 g)” in data set [2] (Water).

Regarding `Cc1ccccc1-c1c2/c(=C(\C#N)c3ccc4ccccc4n3)n(B(c3ccccc3)c3ccccc3)c(-c3ccc(OCCCCS(=O)(=O)O)cc3)c2/c(=C(\C#N)c2ccc3ccccc3n2)n1B(c1ccccc1)c1ccccc1` [Example A-1], in data set [1], the λmax worked out at 819 nm. Besides, the “Number of maximal absorption wavelengths” value in data set [1] worked out at 2. The Solubility entry in data set [2] (Cyclopentanone) was “B (dissolved amount of the infrared-absorbing coloring agent in 100 g of the measurement solvent at 25 °C was less than 0.1 g)”; in data set [2] (Dimethyl sulfoxide), “A (dissolved amount of the infrared-absorbing coloring agent in 100 g of the measurement solvent at 25 °C was 0.1 g or more)”; in data set [2] (PGMEA), “B (dissolved amount of the infrared-absorbing coloring agent in 100 g of the measurement solvent at 25 °C was less than 0.1 g)”; in data set [2] (Water) it was “B (dissolved amount of the infrared-absorbing coloring agent in 100 g of the measurement solvent at 25 °C was less than 0.1 g)”.

Compound `Cc1ccccc1-c1c2/c(=C(\C#N)c3ccc4ccccc4n3)n(B(c3ccccc3)c3ccccc3)c(-c3ccc(OCCO)cc3)c2/c(=C(\C#N)c2ccc3ccccc3n2)n1B(c1ccccc1)c1ccccc1` [Comparative coloring agent 1, reference compound] had a λmax in data set [1] of 819 nm. Also, the “Number of maximal absorption wavelengths” value in data set [1] is reported as 2. In addition, the Solubility result in data set [2] (Cyclopentanone) was “B (dissolved amount of the infrared-absorbing coloring agent in 100 g of the measurement solvent at 25 °C was less than 0.1 g)”; in data set [2] (Dimethyl sulfoxide), “A (dissolved amount of the infrared-absorbing coloring agent in 100 g of the measurement solvent at 25 °C was 0.1 g or more)”; in data set [2] (PGMEA), “B (dissolved amount of the infrared-absorbing coloring agent in 100 g of the measurement solvent at 25 °C was less than 0.1 g)”; in data set [2] (Water) it was “B (dissolved amount of the infrared-absorbing coloring agent in 100 g of the measurement solvent at 25 °C was less than 0.1 g)”.

In data set [1], `Cc1ccccc1-c1c2/c(=C(\C#N)c3nc4ccc(Cl)cc4o3)n(B(c3ccccc3)c3ccccc3)c(-c3ccc(OCCCS(=O)(=O)O)cc3)c2/c(=C(\C#N)c2nc3ccc(Cl)cc3o2)n1B(c1ccccc1)c1ccccc1` [Example A-5] yielded a λmax of 746 nm. Further, the “Number of maximal absorption wavelengths” value in data set [1] is listed as 2. Moreover, the Solubility entry is “B (dissolved amount of the infrared-absorbing coloring agent in 100 g of the measurement solvent at 25 °C was less than 0.1 g)” in data set [2] (Cyclopentanone), “A (dissolved amount of the infrared-absorbing coloring agent in 100 g of the measurement solvent at 25 °C was 0.1 g or more)” in data set [2] (Dimethyl sulfoxide), “B (dissolved amount of the infrared-absorbing coloring agent in 100 g of the measurement solvent at 25 °C was less than 0.1 g)” in data set [2] (PGMEA) and “B (dissolved amount of the infrared-absorbing coloring agent in 100 g of the measurement solvent at 25 °C was less than 0.1 g)” in data set [2] (Water).

With `Cc1ccccc1-c1c2/c(=C(\C#N)c3nc4ccccc4s3)n(B(c3ccccc3)c3ccccc3)c(-c3ccc(OCCCCS(=O)(=O)O)cc3)c2/c(=C(\C#N)c2nc3ccccc3s2)n1B(c1ccccc1)c1ccccc1` [Example A-4], the λmax in data set [1] is recorded as 779 nm. Besides, the “Number of maximal absorption wavelengths” value in data set [1] turned out to be 2. The Solubility result in data set [2] (Cyclopentanone) is “B (dissolved amount of the infrared-absorbing coloring agent in 100 g of the measurement solvent at 25 °C was less than 0.1 g)”; in data set [2] (Dimethyl sulfoxide), “A (dissolved amount of the infrared-absorbing coloring agent in 100 g of the measurement solvent at 25 °C was 0.1 g or more)”; in data set [2] (PGMEA), “B (dissolved amount of the infrared-absorbing coloring agent in 100 g of the measurement solvent at 25 °C was less than 0.1 g)”; in data set [2] (Water) it was “B (dissolved amount of the infrared-absorbing coloring agent in 100 g of the measurement solvent at 25 °C was less than 0.1 g)”.

Take `COc1ccc2nc(/C(C#N)=c3/c4c(-c5ccccc5C)n(B(c5ccccc5)c5ccccc5)/c(=C(/C#N)c5nc6ccc(OC)cc6s5)c4c(-c4ccc(OCCCCS(=O)(=O)O)cc4)n3B(c3ccccc3)c3ccccc3)sc2c1` [Example A-6]: in data set [1], the λmax stood at 801 nm. Moreover, in data set [1], the “Number of maximal absorption wavelengths” value is reported as 2. Besides, the Solubility entry in data set [2] (Cyclopentanone) was “B (dissolved amount of the infrared-absorbing coloring agent in 100 g of the measurement solvent at 25 °C was less than 0.1 g)”; in data set [2] (Dimethyl sulfoxide), “A (dissolved amount of the infrared-absorbing coloring agent in 100 g of the measurement solvent at 25 °C was 0.1 g or more)”; in data set [2] (PGMEA) it was “B (dissolved amount of the infrared-absorbing coloring agent in 100 g of the measurement solvent at 25 °C was less than 0.1 g)”; in data set [2] (Water), “B (dissolved amount of the infrared-absorbing coloring agent in 100 g of the measurement solvent at 25 °C was less than 0.1 g)”.

These data come from US12528947B2, “Infrared-absorbing composition, film, optical filter, solid-state imaging element, image display device, and infrared sensor” (FUJIFILM Corporation, priority 2020, dated 2026).
